Assay results: US20240270736A1, “MACROCYCLIC HETEROCYCLES AND USES THEREOF” (Kumquat Biosciences Inc., priority 2022, published 2024)
pIC50: −log10 of the molar value.

Experiments:
Type in all cases: binding
KRAS G12D = target: T1, KRAS G12D (Homo sapiens, UniProt P01116, G12D); assay: HTRF assay, interaction of KRAS G12D with SOS1; settings: Ras::SOS1 interaction, read-out: Inhibition of KRAS G12D (IC50)
T1 construct: made in house; host or cells: E. coli, e.g. BL21 (DE3)
From the text: (§1) This assay can be also used to assess a selective inhibition or reduction of signaling output of a mutant Ras protein relative to a wildtype, or relative to a different mutant Ras protein. For example, the equilibrium interaction of wildtype Kras or K-Ras mutant (e.g., wildtype or a mutant thereof) with SOS1 (e.g., hSOS1) can be assessed as a proxy or an indication for a subject compound's ability to bind and inhibit Ras protein. The HTRF assay detects from (i) a fluorescence resonance energy transfer (FRET) donor (e.g., antiGST-Europium) that is bound to GST-tagged K-Ras mutant to (ii) a FRET acceptor (e.g., anti-6His-XL665) bound to a His-tagged hSOS1.
(§2) The assay buffer can contain ˜5 mM HEPES pH 7.4, ˜150 mM NaCl, ˜ 1 mM DTT, 0.05% BSA and 0.0025% (v/v) Igepal. A Ras working solution is prepared in an assay buffer containing typically a suitable amount of the protein construct (e.g., GST-tagged K-Ras mutant) and the FRET donor (e.g., antiGST-Eu(K) from Cisbio, France). A SOS1 working solution is prepared in an assay buffer containing suitable amount of the protein construct (e.g., His-hSOS1) and the FRET acceptor (e.g., anti-6His-XL665 from Cisbio, France). A suitable amount of the protein construct will depend on the range of activity or range of IC50 values being detected or under investigation. For detecting an IC50 within a range of 500 nM, the protein constructs of the same range of molarity can be utilized.
(§3) A fixed volume of DMSO with or without test compound is transferred into a 384-well plate. Ras working solution is added to all wells of the test plate. SOS1 working solution is added to all wells except for those that are subsequently filled with inhibitor control solution. Upon incubation for about 10 minutes or longer, the fluorescence is measured with a M1000Pro plate reader (Tecan) using HTRF detection (excitation 337 nm, emission 1: 620 nm, emission 2: 665 nm). Compounds are tested in duplicate at different concentrations (for example, 10 μM, 2.5 μM, 0.63 μM, 0.16 μM, 0.04 μM, 0.01 μM test compound). The ratiometric data (i.e., emission 2 divided by emission 1) is used to calculate IC50 values against Ras using GraphPad Prism (GraphPad software). Signaling output measured in terms of IC50 values can be obtained and a ratio of IC50 against one mutant relative to another mutant can be calculated. For instance, a selective reduction of K-Ras G12D signaling output can be evidenced by a ratio greater than one. In particular, a selective reduction of K-Ras G12D signaling relative to K-Ras WT signaling is evidenced if the ratio of IC50 (against K-Ras WT) to IC50 (against K-Ras G12D) is greater than 1.

wildtype KRAS = target: T2, wildtype KRAS (Homo sapiens, UniProt P01116); assay: HTRF assay, interaction of wildtype KRAS with SOS1; settings: Ras::SOS1 interaction, read-out: Inhibition of KRAS WT (IC50)
T2 construct: made in house; host or cells: E. coli, e.g. BL21 (DE3)
From the text: as §1, §2, §3

KRAS G12V = target: T3, KRAS G12V (Homo sapiens, UniProt P01116, G12V); assay: HTRF assay, interaction of KRAS G12V with SOS1; settings: Ras::SOS1 interaction, read-out: Inhibition of KRAS G12V (IC50)
T3 construct: made in house; host or cells: E. coli, e.g. BL21 (DE3)
From the text: as §1, §2, §3

T1 sequence (P01116 1-188 isoform P01116-2 G12D): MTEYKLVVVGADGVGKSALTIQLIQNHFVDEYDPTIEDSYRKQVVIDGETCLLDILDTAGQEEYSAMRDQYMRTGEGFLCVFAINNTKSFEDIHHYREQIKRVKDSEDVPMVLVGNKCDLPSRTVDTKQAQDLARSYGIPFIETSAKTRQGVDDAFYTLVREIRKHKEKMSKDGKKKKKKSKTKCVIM
T3 sequence (P01116 1-188 isoform P01116-2 G12V): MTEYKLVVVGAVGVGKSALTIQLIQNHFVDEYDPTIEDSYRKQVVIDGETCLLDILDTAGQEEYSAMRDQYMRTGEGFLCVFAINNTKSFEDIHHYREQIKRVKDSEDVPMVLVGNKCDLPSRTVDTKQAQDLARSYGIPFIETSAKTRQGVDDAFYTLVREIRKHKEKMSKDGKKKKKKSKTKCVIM
T2 sequence (P01116 1-188 isoform P01116-2): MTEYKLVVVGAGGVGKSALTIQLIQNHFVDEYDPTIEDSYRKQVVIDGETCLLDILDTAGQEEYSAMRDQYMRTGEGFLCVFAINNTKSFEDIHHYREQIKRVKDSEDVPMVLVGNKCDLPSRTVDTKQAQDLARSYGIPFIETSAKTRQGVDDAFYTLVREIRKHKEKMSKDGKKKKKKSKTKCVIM

| pIC50 (KRAS G12D) | pIC50 (wildtype KRAS) | pIC50 (KRAS G12V) | SMILES |
| --- | --- | --- | --- |
| ≥ 5.30 | ≥ 5.30 |  | CN(C)CC1CC=CCCN2c3nc(nc4c(F)c(-c5ccc(F)c6sc(N)c(C#N)c56)c(Cl)c(c34)OC[C@@H]2C(F)F)O1 (mixture of isomers) [Compound 107, 2-amino-4-((11R)-14-chloro-11-(difluoromethyl)-4-((dimethylamino)methyl)-16-fluoro-4,5,8,9,11,12-hexahydro-2,17-(azeno)benzo[6,7][1,4]oxazepino[5,4-d][1]oxa[3,5]diazacycloundecin-15-yl)-7-fluorobenzo[b]thiophene-3-carbonitrile] |
| ≥ 5.30 | ≥ 5.30 | ≥ 5.30 | C[C@H]1COc2c(Cl)c(-c3ccc(F)c4sc(N)c(C#N)c34)c(F)c3nc4nc(c23)N1CCC=CCC(CN(C)C)O4 (mixture of isomers) [Compound 150, 2-amino-4-((11S)-14-chloro-4-((dimethylamino)methyl)-16-fluoro-11-methyl-4,5,8,9,11,12-hexahydro-2,17-(azeno)benzo[6,7][1,4]oxazepino[5,4-d][1]oxa[3,5]diazacycloundecin-15-yl)-7-fluorobenzo[b]thiophene-3-carbonitrile] |
| ≥ 5.30 | ≥ 5.30 | ≥ 5.30 | C[C@H]1COc2c(Cl)c(-c3ccc(F)c4sc(N)c(C#N)c34)c(F)c3nc4nc(c23)N1CCC=CCC(CN(C)C)O4 (single isomer, unassigned) [Compound 103] |
| ≥ 5.30 | ≥ 5.30 | ≥ 5.30 | CN1C[C@@H]2C[C@H]1COc1nc3c4c(c(Cl)c(-c5ccc(F)c6sc(N)c(C#N)c56)c(F)c4n1)OCCN3CCCO2 (single isomer, unassigned) [Compound 135] |
| ≥ 5.30 | ≥ 5.30 | ≥ 5.30 | CN(C)CCC1CC=CCCN2CCOc3c(Cl)c(-c4ccc(F)c5sc(N)c(C#N)c45)c(F)c4nc(nc2c34)O1 (single isomer, unassigned) [Compound 148, 2-amino-4-(14-chloro-4-(2-(dimethylamino)ethyl)-16-fluoro-4,5,8,9,11,12-hexahydro-2,17-(azeno)benzo[6,7][1,4]oxazepino[5,4-d][1]oxa[3,5]diazacycloundecin-15-yl)-7-fluorobenzo[b]thiophene-3-carbonitrile] |
| ≥ 5.30 | ≥ 5.30 | ≥ 5.30 | CN(C)CC1CC/C=C/CCN2CCOc3c(Cl)c(-c4ccc(F)c5sc(N)c(C#N)c45)c(F)c4nc(nc2c34)O1 (stereo not shown) [Compound 101, (E)-2-amino-4-(15-chloro-4-((dimethylamino)methyl)-17-fluoro-5,6,9,10,12,13-hexahydro-4H-2,18-(azeno)benzo[6,7][1,4]oxazepino[5,4-d][1]oxa[3,5]diazacyclododecin-16-yl)-7-fluorobenzo[b]thiophene-3-carbonitrile] |
| ≥ 5.30 | ≥ 5.30 | ≥ 5.30 | CN(C)[C@@H]1CNC(=O)CCN2CCOc3c(Cl)c(-c4ccc(F)c5sc(N)c(C#N)c45)c(F)c4nc(nc2c34)OC1 [Compound 104, 2-amino-4-((5R)-15-chloro-5-(dimethylamino)-17-fluoro-8-oxo-5,6,7,8,9,10,12,13-octahydro-4H-2,18-(azeno)benzo[6,7][1,4]oxazepino[5,4-d][1]oxa[3,5,9]triazacyclododecin-16-yl)-7-fluorobenzo[b]thiophene-3-carbonitrile] |
| ≥ 5.30 | ≥ 5.30 | ≥ 5.30 | CN(C)CC1/C=C/CCN2CCOc3c(Cl)c(-c4ccc(F)c5sc(N)c(C#N)c45)c(F)c4nc(nc2c34)OC1 (stereo not shown) [Compound 110, (E)-2-amino-4-(14-chloro-5-((dimethylamino)methyl)-16-fluoro-4,5,8,9,11,12-hexahydro-2,17-(azeno)benzo[6,7][1,4]oxazepino[5,4-d][1]oxa[3,5]diazacycloundecin-15-yl)-7-fluorobenzo[b]thiophene-3-carbonitrile] |
| ≥ 5.30 | ≥ 5.30 | ≥ 5.30 | N#Cc1c(N)sc2c(F)ccc(-c3c(Cl)c4c5c6nc(nc5c3F)OCCNC(=O)CCN6CCO4)c12 [Compound 112, 2-amino-4-(14-chloro-16-fluoro-7-oxo-4,5,6,7,8,9,11,12-octahydro-2,17-(azeno)benzo[6,7][1,4]oxazepino[5,4-d][1]oxa[3,5,9]triazacycloundecin-15-yl)-7-fluorobenzo[b]thiophene-3-carbonitrile] |
|  |  | ≥ 5.30 | CN1CCCCOc2nc3c4c(c(Cl)c(-c5ccc(F)c6sc(N)c(C#N)c56)c(F)c4n2)OCCN3CCCC1 [Compound 113, 2-amino-4-(17-chloro-19-fluoro-8-methyl-5,6,7,8,9,10,11,12,14,15-decahydro-4H-2,20-(azeno)benzo[6,7][1,4]oxazepino[5,4-d][1]oxa[3,5,10]triazacyclotetradecin-18-yl)-7-fluorobenzo[b]thiophene-3-carbonitrile] |
|  |  | ≥ 5.30 | CN(C)CC1CC=CCCN2c3nc(nc4c(F)c(-c5ccc(F)c6sc(N)c(C#N)c56)c(Cl)c(c34)OC[C@@H]2C(F)F)O1 (stereo partly drawn) [Compound 115, 2-amino-4-((11R)-14-chloro-11-(difluoromethyl)-4-((dimethylamino)methyl)-16-fluoro-4,5,8,9,11,12-hexahydro-2,17-(azeno)benzo[6,7][1,4]oxazepino[5,4-d][1]oxa[3,5]diazacycloundecin-15-y1)-7-fluorobenzo[b]thiophene-3-carbonitrile] |
| ≥ 5.30 | ≥ 5.30 | ≥ 5.30 | CN(C)CC1CC=CCCN2CCOc3c(Cl)c(-c4ccc(F)c5sc(N)c(C#N)c45)c(F)c4nc(nc2c34)O1 (stereo not shown) [Compound 116, 2-amino-4-(14-chloro-4-((dimethylamino)methyl)-16-fluoro-4,5,8,9,11,12-hexahydro-2,17-(azeno)benzo[6,7][1,4]oxazepino[5,4-d][1]oxa[3,5]diazacycloundecin-15-yl)-7-fluorobenzo[b]thiophene-3-carbonitrile] |
| ≥ 5.30 | ≥ 5.30 | ≥ 5.30 | CN(C)CC1CCCCCCN2CCOc3c(Cl)c(-c4ccc(F)c5sc(N)c(C#N)c45)c(F)c4nc(nc2c34)O1 (stereo not shown) [Compound 117, 2-amino-4-(15-chloro-4-((dimethylamino)methyl)-17-fluoro-5,6,7,8,9,10,12,13-octahydro-4H-2,18-(azeno)benzo[6,7][1,4]oxazepino[5,4-d][1]oxa[3,5]diazacyclododecin-16-yl)-7-fluorobenzo[b]thiophene-3-carbonitrile] |
| ≥ 5.30 | ≥ 5.30 | ≥ 5.30 | CN(C)C[C@H]1CCNC(=O)CCN2CCOc3c(Cl)c(-c4ccc(F)c5sc(N)c(C#N)c45)c(F)c4nc(nc2c34)O1 [Compound 123, 2-amino-4-((4R)-15-chloro-4-((dimethylamino)methyl)-17-fluoro-8-oxo-5,6,7,8,9,10,12,13-octahydro-4H-2,18-(azeno)benzo[6,7][1,4]oxazepino[5,4-d][1]oxa[3,5,9]triazacyclododecin-16-yl)-7-fluorobenzo[b]thiophene-3-carbonitrile] |
| ≥ 5.30 | ≥ 5.30 | ≥ 5.30 | CN(C)CC1CNC(=O)CCN2CCOc3c(Cl)c(-c4ccc(F)c5sc(N)c(C#N)c45)c(F)c4nc(nc2c34)O1 (stereo not shown) [Compound 128, 2-amino-4-(14-chloro-4-((dimethylamino)methyl)-16-fluoro-7-oxo-4,5,6,7,8,9,11,12-octahydro-2,17-(azeno)benzo[6,7][1,4]oxazepino[5,4-d][1]oxa[3,5,9]triazacycloundecin-15-yl)-7-fluorobenzo[b]thiophene-3-carbonitrile] |
| ≥ 5.30 | ≥ 5.30 | ≥ 5.30 | CNCCC1CC=CCCN2CCOc3c(Cl)c(-c4ccc(F)c5sc(N)c(C#N)c45)c(F)c4nc(nc2c34)O1 (stereo not shown) [Compound 130, 2-amino-4-(14-chloro-16-fluoro-4-(2-(methylamino)ethyl)-4,5,8,9,11,12-hexahydro-2,17-(azeno)benzo[6,7][1,4]oxazepino[5,4-d][1]oxa[3,5]diazacycloundecin-15-yl)-7-fluorobenzo[b]thiophene-3-carbonitrile] |
